Source: ChEMBL document CHEMBL5291721, “A preclinical secondary pharmacology resource illuminates target-adverse drug reaction associations of marketed drugs” (Nat Commun, 2023)

Columns and labels:
Acetylcholinesterase = Acetylcholinesterase (Homo sapiens, UniProt P22303); format: functional
Adenosine receptor A3 = target: T1, Adenosine receptor A3 (Homo sapiens, UniProt P0DMS8)
T1 sequence (P0DMS8 whole entry): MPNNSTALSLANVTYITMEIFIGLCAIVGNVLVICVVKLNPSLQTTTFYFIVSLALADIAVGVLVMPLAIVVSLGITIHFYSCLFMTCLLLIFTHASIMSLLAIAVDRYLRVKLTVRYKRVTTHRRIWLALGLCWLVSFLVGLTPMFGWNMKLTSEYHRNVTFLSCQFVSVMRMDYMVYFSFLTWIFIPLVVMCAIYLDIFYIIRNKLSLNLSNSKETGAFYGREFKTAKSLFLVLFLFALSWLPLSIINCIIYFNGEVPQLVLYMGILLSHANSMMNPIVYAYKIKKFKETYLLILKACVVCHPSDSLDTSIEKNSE

[1] = target: T2, Alpha-1A adrenergic receptor (Homo sapiens, UniProt P35348); format: functional, cell-based
T2 sequence (P35348 whole entry): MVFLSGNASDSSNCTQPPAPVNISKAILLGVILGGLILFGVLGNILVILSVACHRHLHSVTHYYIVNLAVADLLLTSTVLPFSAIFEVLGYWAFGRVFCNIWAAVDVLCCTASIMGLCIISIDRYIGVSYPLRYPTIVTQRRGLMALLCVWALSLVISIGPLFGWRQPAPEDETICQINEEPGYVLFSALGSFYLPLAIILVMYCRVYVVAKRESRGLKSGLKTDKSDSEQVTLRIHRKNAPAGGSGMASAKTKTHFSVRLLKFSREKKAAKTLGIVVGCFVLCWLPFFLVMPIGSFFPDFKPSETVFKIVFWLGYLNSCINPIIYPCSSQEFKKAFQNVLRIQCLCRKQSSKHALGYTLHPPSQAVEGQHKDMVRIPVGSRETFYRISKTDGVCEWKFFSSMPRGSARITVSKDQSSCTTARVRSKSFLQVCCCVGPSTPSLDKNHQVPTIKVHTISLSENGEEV

[2] = target: T3, 5-hydroxytryptamine receptor 1A (Homo sapiens, UniProt P08908)
T3 sequence (P08908 whole entry): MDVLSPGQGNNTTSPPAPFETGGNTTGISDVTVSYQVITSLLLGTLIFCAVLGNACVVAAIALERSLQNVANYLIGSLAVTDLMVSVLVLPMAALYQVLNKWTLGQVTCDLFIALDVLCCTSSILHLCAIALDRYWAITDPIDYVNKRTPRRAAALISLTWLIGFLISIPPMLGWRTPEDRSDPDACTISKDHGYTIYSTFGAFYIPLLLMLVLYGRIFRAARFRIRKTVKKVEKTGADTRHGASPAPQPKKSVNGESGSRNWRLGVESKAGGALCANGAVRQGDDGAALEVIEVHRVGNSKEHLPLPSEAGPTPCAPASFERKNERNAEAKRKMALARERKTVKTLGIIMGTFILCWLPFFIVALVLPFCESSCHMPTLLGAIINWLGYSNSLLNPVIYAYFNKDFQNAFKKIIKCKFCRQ

[3] = target: cGMP-inhibited 3',5'-cyclic phosphodiesterase 3A (Homo sapiens, UniProt Q14432); format: functional
cGMP-inhibited 3',5'-cyclic phosphodiesterase 3A, sequence (Q14432 whole entry): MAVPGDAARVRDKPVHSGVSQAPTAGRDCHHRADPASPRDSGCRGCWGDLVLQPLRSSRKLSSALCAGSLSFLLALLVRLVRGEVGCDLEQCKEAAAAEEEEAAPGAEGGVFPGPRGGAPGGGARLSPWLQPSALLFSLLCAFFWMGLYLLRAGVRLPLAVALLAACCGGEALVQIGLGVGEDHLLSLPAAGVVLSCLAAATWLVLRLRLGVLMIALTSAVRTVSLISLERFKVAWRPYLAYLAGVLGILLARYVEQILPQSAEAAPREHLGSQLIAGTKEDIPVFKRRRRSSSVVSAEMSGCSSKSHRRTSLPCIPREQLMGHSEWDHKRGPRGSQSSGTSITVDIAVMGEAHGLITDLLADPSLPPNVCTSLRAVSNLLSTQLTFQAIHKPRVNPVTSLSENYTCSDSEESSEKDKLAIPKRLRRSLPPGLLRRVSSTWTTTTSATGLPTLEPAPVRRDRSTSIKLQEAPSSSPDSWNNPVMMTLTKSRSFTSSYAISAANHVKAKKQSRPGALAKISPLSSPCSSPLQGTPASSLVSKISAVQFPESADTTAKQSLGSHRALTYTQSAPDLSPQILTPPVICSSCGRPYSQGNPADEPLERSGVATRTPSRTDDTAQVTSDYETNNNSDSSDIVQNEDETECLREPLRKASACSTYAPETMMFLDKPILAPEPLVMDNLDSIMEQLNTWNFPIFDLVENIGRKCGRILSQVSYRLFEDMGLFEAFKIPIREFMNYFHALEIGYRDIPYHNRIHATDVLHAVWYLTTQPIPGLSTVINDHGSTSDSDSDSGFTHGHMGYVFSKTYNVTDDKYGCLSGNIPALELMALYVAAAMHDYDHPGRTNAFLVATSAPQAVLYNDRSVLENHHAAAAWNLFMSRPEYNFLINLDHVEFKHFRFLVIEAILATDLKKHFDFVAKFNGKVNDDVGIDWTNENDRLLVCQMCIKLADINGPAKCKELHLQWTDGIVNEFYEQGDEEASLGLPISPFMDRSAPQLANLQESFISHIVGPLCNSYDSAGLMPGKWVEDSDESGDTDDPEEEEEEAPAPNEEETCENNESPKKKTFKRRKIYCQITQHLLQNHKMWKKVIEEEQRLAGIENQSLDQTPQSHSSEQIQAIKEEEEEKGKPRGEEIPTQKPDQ

Progesterone receptor = target: T4, Progesterone receptor (Homo sapiens, UniProt P06401)
T4 sequence (P06401 whole entry): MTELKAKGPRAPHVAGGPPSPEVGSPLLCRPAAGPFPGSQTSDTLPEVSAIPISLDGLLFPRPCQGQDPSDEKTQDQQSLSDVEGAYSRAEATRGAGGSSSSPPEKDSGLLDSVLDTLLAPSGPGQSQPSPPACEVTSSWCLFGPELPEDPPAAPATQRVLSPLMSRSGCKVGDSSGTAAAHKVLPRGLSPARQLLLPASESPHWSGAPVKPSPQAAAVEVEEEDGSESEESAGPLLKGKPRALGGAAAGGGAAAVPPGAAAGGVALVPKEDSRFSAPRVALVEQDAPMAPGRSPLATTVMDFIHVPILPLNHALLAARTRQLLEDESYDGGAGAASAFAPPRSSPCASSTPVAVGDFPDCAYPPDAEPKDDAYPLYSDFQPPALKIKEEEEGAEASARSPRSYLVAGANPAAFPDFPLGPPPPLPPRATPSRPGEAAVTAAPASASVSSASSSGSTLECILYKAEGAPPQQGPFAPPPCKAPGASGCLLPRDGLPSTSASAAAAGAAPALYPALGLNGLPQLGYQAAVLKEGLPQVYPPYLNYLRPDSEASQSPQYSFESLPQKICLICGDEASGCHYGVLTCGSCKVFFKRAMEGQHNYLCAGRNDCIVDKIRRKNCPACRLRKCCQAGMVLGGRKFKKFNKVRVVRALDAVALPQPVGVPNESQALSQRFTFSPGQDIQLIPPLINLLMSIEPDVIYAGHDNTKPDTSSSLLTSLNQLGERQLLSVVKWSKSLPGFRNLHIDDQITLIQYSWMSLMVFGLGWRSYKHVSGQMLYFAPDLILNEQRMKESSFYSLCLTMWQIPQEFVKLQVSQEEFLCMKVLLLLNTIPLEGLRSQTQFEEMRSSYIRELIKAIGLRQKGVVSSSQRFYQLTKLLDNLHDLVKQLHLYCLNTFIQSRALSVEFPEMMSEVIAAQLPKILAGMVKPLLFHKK

[4] = target: Prostaglandin G/H synthase 1 (Homo sapiens, UniProt P23219); format: functional
Prostaglandin G/H synthase 1, sequence (P23219 whole entry): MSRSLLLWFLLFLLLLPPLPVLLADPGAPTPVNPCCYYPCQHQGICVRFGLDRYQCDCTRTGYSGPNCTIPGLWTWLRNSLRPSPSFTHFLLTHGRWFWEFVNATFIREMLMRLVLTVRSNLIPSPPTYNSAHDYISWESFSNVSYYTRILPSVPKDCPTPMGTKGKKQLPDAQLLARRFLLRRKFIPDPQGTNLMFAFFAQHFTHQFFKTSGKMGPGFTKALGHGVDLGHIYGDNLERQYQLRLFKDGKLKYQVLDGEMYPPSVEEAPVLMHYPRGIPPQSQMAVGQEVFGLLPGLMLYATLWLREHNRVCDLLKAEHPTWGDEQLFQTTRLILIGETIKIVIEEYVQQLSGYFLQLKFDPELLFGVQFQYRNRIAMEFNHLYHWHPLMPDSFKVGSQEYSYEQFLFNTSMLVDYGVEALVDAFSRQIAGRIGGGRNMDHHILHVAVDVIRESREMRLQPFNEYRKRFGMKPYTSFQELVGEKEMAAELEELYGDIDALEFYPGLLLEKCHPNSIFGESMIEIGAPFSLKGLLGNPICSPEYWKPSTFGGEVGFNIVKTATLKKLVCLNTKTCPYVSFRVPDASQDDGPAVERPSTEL

[5] = target: Sodium-dependent serotonin transporter (Homo sapiens, UniProt P31645)
Sodium-dependent serotonin transporter, sequence (P31645 whole entry): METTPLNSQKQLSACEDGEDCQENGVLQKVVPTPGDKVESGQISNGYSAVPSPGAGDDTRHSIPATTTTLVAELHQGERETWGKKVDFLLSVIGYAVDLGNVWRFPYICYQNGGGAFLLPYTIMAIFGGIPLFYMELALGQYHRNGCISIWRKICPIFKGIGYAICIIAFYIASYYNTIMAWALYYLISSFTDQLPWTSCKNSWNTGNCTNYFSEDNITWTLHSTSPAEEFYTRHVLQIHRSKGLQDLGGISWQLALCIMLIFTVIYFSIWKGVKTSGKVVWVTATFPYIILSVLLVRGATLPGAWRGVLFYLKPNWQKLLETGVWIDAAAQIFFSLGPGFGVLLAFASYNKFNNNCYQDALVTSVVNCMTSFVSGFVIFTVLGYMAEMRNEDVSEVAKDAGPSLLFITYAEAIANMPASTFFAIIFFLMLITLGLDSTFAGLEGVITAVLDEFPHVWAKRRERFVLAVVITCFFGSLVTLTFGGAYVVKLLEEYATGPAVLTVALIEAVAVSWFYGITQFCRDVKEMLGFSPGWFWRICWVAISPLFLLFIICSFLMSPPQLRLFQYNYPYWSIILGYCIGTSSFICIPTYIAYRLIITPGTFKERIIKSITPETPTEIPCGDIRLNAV

Thromboxane A2 receptor = target: T5, Thromboxane A2 receptor (Homo sapiens, UniProt P21731); format: functional, cell-based
T5 sequence (P21731 whole entry): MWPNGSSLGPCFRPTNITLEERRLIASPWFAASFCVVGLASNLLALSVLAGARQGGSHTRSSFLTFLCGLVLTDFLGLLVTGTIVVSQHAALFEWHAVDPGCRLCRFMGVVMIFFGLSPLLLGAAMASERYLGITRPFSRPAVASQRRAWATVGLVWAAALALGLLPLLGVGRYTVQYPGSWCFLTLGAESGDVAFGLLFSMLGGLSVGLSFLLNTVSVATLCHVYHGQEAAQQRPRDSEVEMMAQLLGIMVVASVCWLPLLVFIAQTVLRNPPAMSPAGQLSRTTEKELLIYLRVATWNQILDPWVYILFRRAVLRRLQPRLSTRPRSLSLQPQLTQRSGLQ
Also: assay procedure not described here.

Acetylcholinesterase, sequence (P22303 whole entry): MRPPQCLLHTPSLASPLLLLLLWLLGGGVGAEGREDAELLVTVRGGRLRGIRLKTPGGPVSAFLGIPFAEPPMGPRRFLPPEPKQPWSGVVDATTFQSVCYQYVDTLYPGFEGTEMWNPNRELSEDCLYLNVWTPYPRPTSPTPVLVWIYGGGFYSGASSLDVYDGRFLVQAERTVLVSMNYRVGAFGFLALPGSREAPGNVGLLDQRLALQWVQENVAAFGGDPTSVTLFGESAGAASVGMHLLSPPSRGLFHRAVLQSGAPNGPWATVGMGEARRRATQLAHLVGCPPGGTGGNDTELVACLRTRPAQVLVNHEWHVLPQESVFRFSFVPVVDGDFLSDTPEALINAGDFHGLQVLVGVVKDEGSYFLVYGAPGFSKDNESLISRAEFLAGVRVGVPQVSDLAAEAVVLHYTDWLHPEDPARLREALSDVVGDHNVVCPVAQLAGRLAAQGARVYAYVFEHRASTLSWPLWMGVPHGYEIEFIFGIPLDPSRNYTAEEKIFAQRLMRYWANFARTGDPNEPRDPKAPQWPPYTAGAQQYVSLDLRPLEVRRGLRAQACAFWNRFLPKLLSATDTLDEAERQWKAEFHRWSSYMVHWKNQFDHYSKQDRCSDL

How did the AC50 (Acetylcholinesterase) turn out when `CC(C1=C(CCN(C)C)Cc2ccccc21)c1ccccn1` (stereo not given) was run?
The AC50 was greater than 30 µM.

And the AC50 (Adenosine receptor A3)?
Its AC50 is greater than 30 µM.

And the AC50 [1]?
The AC50 was 8.8 µM.

What about the AC50 [2] of the same molecule?
The AC50 was 8.78 µM.

What about the AC50 [3] of the same molecule?
Its AC50 is greater than 30 µM.

What about the AC50 (Progesterone receptor) of the same molecule?
The AC50 was greater than 30 µM.

And the AC50 [4]?
Its AC50 is greater than 30 µM.

And the AC50 [5]?
The AC50 was 13.7 µM.

And the AC50 (Thromboxane A2 receptor)?
Its AC50 is greater than 30 µM.

Which results are given for `CC(=O)OC(C)OC(=O)C(C)c1ccc(-c2ccccc2)c(F)c1` (stereo not given)?
AC50 (Acetylcholinesterase): > 30 µM; AC50 (Adenosine receptor A3): > 30 µM; AC50 [1]: > 30 µM; AC50 [2]: > 30 µM; AC50 [3]: > 30 µM; AC50 (Progesterone receptor): 25.4 µM; AC50 [4]: 0.0309 µM; AC50 [5]: > 30 µM; AC50 (Thromboxane A2 receptor): > 30 µM

How did the AC50 (Acetylcholinesterase) turn out when `C[C@H](N)C(=O)O` [ALANINE] was run?
Its AC50 is greater than 30 µM.

What about the AC50 (Adenosine receptor A3) of the same molecule?
The AC50 was greater than 30 µM.

And the AC50 [1]?
Its AC50 is greater than 30 µM.

What about the AC50 [2] of the same molecule?
The AC50 was greater than 30 µM.

What about the AC50 [3] of the same molecule?
The AC50 was greater than 30 µM.

And the AC50 (Progesterone receptor)?
The AC50 was greater than 30 µM.

What about the AC50 [4] of the same molecule?
Its AC50 is greater than 30 µM.

What about the AC50 [5] of the same molecule?
Its AC50 is greater than 30 µM.

And the AC50 (Thromboxane A2 receptor)?
The AC50 was greater than 30 µM.

For `O=C1c2c(O)cccc2Cc2cccc(O)c21` [ANTHRALIN], which AC50 (Acetylcholinesterase) is on record?
Its AC50 is greater than 30 µM.

And the AC50 (Adenosine receptor A3)?
Its AC50 is greater than 3 µM.

And the AC50 [1]?
The AC50 was greater than 30 µM.

What about the AC50 [2] of the same molecule?
Its AC50 is greater than 30 µM.

And the AC50 [3]?
Its AC50 is greater than 30 µM.

And the AC50 (Progesterone receptor)?
Its AC50 is greater than 30 µM.

And the AC50 [4]?
The AC50 was 0.875 µM.

What about the AC50 [5] of the same molecule?
The AC50 was greater than 3 µM.

What about the AC50 (Thromboxane A2 receptor) of the same molecule?
Its AC50 is greater than 30 µM.

`CNC(=O)C[C@@H](N)C(=O)N[C@@H](C(=O)N[C@@H]1C(=O)N2[C@@H]1SC(C)(C)[C@@H]2C(=O)O)c1ccc(O)cc1` [ASPOXICILLIN] was tested. Which AC50 (Acetylcholinesterase) did it give?
The AC50 was greater than 30 µM.

What about the AC50 (Adenosine receptor A3) of the same molecule?
Its AC50 is greater than 30 µM.

And the AC50 [1]?
The AC50 was greater than 30 µM.

What about the AC50 [2] of the same molecule?
Its AC50 is greater than 30 µM.

What about the AC50 [3] of the same molecule?
Its AC50 is greater than 30 µM.

What about the AC50 (Progesterone receptor) of the same molecule?
The AC50 was greater than 30 µM.

And the AC50 [4]?
The AC50 was greater than 30 µM.

What about the AC50 [5] of the same molecule?
The AC50 was greater than 30 µM.

And the AC50 (Thromboxane A2 receptor)?
Its AC50 is greater than 30 µM.

For `COC(=O)C1=C(C)NC(C)=C(C(=O)O[C@H]2CCN(Cc3ccccc3)C2)[C@H]1c1cccc([N+](=O)[O-])c1` [BARNIDIPINE], which AC50 (Acetylcholinesterase) is on record?
Its AC50 is greater than 30 µM.

And the AC50 (Adenosine receptor A3)?
The AC50 was 4.65 µM.

And the AC50 [1]?
The AC50 was 1.31 µM.

What about the AC50 [2] of the same molecule?
The AC50 was 6.56 µM.

And the AC50 [3]?
Its AC50 is greater than 30 µM.

What about the AC50 (Progesterone receptor) of the same molecule?
Its AC50 is 5.55 µM.

And the AC50 [4]?
Its AC50 is greater than 30 µM.

And the AC50 [5]?
The AC50 was 13.6 µM.

And the AC50 (Thromboxane A2 receptor)?
The AC50 was 4.47 µM.

How did the AC50 (Acetylcholinesterase) turn out when `CCCCOc1ccc(CC(=O)NO)cc1` [BUFEXAMAC] was run?
Its AC50 is greater than 30 µM.

And the AC50 (Adenosine receptor A3)?
Its AC50 is greater than 30 µM.

What about the AC50 [1] of the same molecule?
The AC50 was greater than 30 µM.

And the AC50 [2]?
The AC50 was greater than 30 µM.

What about the AC50 [3] of the same molecule?
The AC50 was greater than 30 µM.

And the AC50 (Progesterone receptor)?
Its AC50 is greater than 30 µM.

And the AC50 [4]?
Its AC50 is greater than 30 µM.

What about the AC50 [5] of the same molecule?
The AC50 was greater than 30 µM.

And the AC50 (Thromboxane A2 receptor)?
The AC50 was greater than 30 µM.

Which results are given for `Cc1nnc(SCC2=C(C(=O)O)N3C(=O)[C@@H](NC(=O)Cn4cc(Cl)c(=O)c(Cl)c4)[C@H]3SC2)s1` [CEFAZEDONE]?
AC50 (Acetylcholinesterase): > 30 µM; AC50 (Adenosine receptor A3): > 30 µM; AC50 [1]: > 30 µM; AC50 [2]: > 30 µM; AC50 [3]: > 30 µM; AC50 (Progesterone receptor): > 30 µM; AC50 [4]: 8.23 µM; AC50 [5]: > 30 µM; AC50 (Thromboxane A2 receptor): > 30 µM

`CO/N=C(\C(=O)N[C@@H]1C(=O)N2C(C(=O)[O-])=C(C[n+]3cccc4c3CCC4)CS[C@H]12)c1csc(N)n1` [CEFPIROME] was tested. Which AC50 (Acetylcholinesterase) did it give?
The AC50 was greater than 30 µM.

And the AC50 [1]?
The AC50 was greater than 30 µM.

And the AC50 [2]?
Its AC50 is greater than 30 µM.

And the AC50 [3]?
The AC50 was greater than 30 µM.

What about the AC50 (Progesterone receptor) of the same molecule?
The AC50 was greater than 30 µM.

And the AC50 [4]?
The AC50 was greater than 30 µM.

And the AC50 [5]?
The AC50 was greater than 30 µM.

And the AC50 (Thromboxane A2 receptor)?
Its AC50 is greater than 30 µM.
